Laboratory results reported in US11679107B2 (Eisai R&D Management Co., Ltd., priority 2018, dated 2023).
Like-named read-outs stand apart in the source and are kept apart here.

Assays:
[1] = test system: Ad2 variant pre-mRNAs spliced in HeLa S3 nuclear extracts; assay: In vitro splicing assay (IVS), RT-qPCR of spliced product; type: biochemical; conditions: for IC50: geometric mean; for Ratio Ad2.1/2.2: ratio of IVS IC50 Ad2.1 to Ad2.2
How it was run: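 Read-out is one-step TaqMan RT-qPCR of spliced Ad2 mRNA with Ftz as reference, normalized to DMSO and fit by non-linear regression. Reactions held HeLa S3 nuclear extract, 2 ng Ad2-derived pre-mRNA and test compound, with 15 min preincubation. Splicing was started with ATP-containing activation buffer and run 90 min at 30 °C.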

[2] = test system: Panc 05.04 cells (SF3b K700E mutant); assay: Cell proliferation and viability, CellTiter-Glo, 72 hours; type: cell-based; conditions: for GI50: geometric mean
How it was run: (§1)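 ATP luminescence (CellTiter-Glo) was measured 72 h after treatment with compound at 10 μM–100 pM (11 points, half-log) in 0.1% DMSO. The Panc line was grown in RPMI-1640 plus insulin and 15% FBS, the other in 10% FBS. Data were normalised to time zero and vehicle controls, where −100% is cidal and 0% static.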

[3] = test system: NCI-H1568 cells (high MCL1); assay: as above; type: cell-based; conditions: for GI50: geometric mean
How it was run: as §1

SF3b complexes = target: T1, SF3b complexes (Homo sapiens, UniProt O75533+Q7RTV0); assay: Scintillation proximity assay (SPA) with [3H]-labelled pladienolide probe; type: binding; conditions: SF3B1 (WT); geometric mean; read-out: SPA-ATS GMean IC50 (nM) SF3B1 (WT)
T1 construct: endogenous in cells; host or cells: Nuclear extracts; A HeLa S3 extract preparation is described for the in vitro splicing assay
How it was run: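 SF3b complexes captured from nuclear extracts on anti-SF3B1 antibody SPA beads; test compounds pre-incubated 30 min before 2.5 nM [3H]-pladienolide probe added, then 30 min incubation. Bound probe read by scintillation; values from non-linear regression of concentration–response curves.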

[4] = Ad2.1 pre-mRNA substrate, read-out: qPCR-IVS-ATS GMean IC50 (nM) Ad2.1
[5] = Ad2.2 pre-mRNA substrate, read-out: qPCR-IVS-ATS GMean IC50 (nM) Ad2.2
[6] = PANC0504.1 cells, 72 h, −100% cidal, 0% static, 100% maximal growth
[7] = Panc 05.04, read-out: CTGlo-ATS GMean GI50 (nM) 72 h PANC0504.1, PANC0504.1 cells, 72 h
[8] = NCI-H1568, read-out: CTGlo-ATS GMean GI50 (nM) 72 h NCIH1568.1, NCIH1568.1 cells, 72 h
[9] = NCIH1568.1 cells, 72 h, −100% cidal, 0% static, 100% maximal growth
[10] = 72 h, PANC0504.1, -100% = cidal, 0% = static, 100% = uninhibited growth
[11] = Panc 05.04, 72 h, read-out: CTGlo-ATS GMean GI50 (nM) 72 h PANC0504.1, 72 h, PANC0504.1
[12] = 72 h, NCIH1568.1, -100% = cidal, 0% = static, 100% = uninhibited growth
[13] = NCI-H1568, 72 h, read-out: CTGlo-ATS GMean GI50 (nM) 72 h NCIH1568.1, 72 h, NCIH1568.1
[14] = Panc 05.04, read-out: CTGlo-ATS GMean GI50 (nM) 72 h PANC0504.1, 72 h, PANC0504.1
[15] = NCI-H1568, read-out: CTGlo-ATS GMean GI50 (nM) 72 h NCIH1568.1, 72 h, NCIH1568.1

Row | SMILES | IC50 [1, 4] | IC50 [1, 5] | CTGlo-ATS Mean MinResponse % 72 h PANC0504.1 [2, 6] | GI50 [2, 7] | GI50 [3, 8] | CTGlo-ATS Mean MinResponse % 72 h NCIH1568.1 [3, 9] | IC50 (SF3b complexes) | Ratio Ad2.1/2.2 [1] | CTGlo-ATS Mean MinResponse % 72 h PANC0504.1 [2, 10] | GI50 [2, 11] | CTGlo-ATS Mean MinResponse % 72 h NCIH1568.1 [3, 12] | GI50 [3, 13] | GI50 [2, 14] | GI50 [3, 15] | GI50 ([2]; Panc 05.04, 72 h, read-out: CTGlo-ATS GMean GI50 (nM) 72 h PANC0504.1, PANC0504.1 cells, 72 h) | GI50 ([3]; NCI-H1568, 72 h, read-out: CTGlo-ATS GMean GI50 (nM) 72 h NCIH1568.1, NCIH1568.1 cells, 72 h)
1 | C/C(=C\c1cccc(S(=O)(=O)N2CCNCC2)c1)[C@H]1OC(=O)C[C@H](O)CC[C@H](C)[C@@H](OC(=O)N2CCN(C)CC2)/C=C/[C@@H]1C [Compound 93] | 219 nM | 41.6 nM | −97.726% | 109 nM | 73.8 nM | −57.108% | 24.7 nM |  |  |  |  |  |  |  |  | 
2 | C/C(=C\c1cccc(COC(=O)N2CCOCC2)c1)[C@H]1OC(=O)C[C@H](O)CC[C@H](C)[C@@H](OC(=O)N2CCN(C)CC2)/C=C/[C@@H]1C [Compound 257, [3-[(E)-2-[(2S,3S,4E,6R,7S,10R)-10-hydroxy-3,7-dimethyl-6-(4-methylpiperazine-1-carbonyl)oxy-12-oxo-1-oxacyclododec-4-en-2-yl]prop-1-enyl]phenyl]methyl morpholine-4-carboxylate] | > 25000 nM | 117 nM |  |  |  |  | 5.75 nM | 213.903 | −75.412% | 71.5 nM | −4.151% | 266 nM |  |  |  | 
3 | C/C(=C\c1cc(F)cc(N2CCOCC2)c1)[C@H]1OC(=O)C[C@H](O)CC[C@H](C)[C@@H](OC(=O)N2CCC(N3CCCCC3)CC2)/C=C/[C@@H]1C [Compound 262, [(2S,3S,4E,6R,7S,10R)-2-[(E)-1-(3-fluoro-5-morpholin-4-ylphenyl)prop-1-en-2-yl]-10-hydroxy-3,7-dimethyl-12-oxo-1-oxacyclododec-4-en-6-yl] 4-piperidin-1-ylpiperidine-1-carboxylate] | 4100 nM | 51.6 nM |  |  |  |  | 5.66 nM | 79.467 | −91.709% | 29.3 nM | −65.862% | 41.7 nM |  |  |  | 
4 | C/C(=C\c1cc(F)cc(N(C)C2COC2)c1)[C@H]1OC(=O)C[C@H](O)CC[C@H](C)[C@@H](OC(=O)N2CCN(C)CC2)/C=C/[C@@H]1C [Compound 169] | 96.6 nM | 19.8 nM | −90.232% | 8.9 nM | 8.26 nM | −66.086% | 1.43 nM |  |  |  |  |  |  |  |  | 
5 | C/C(=C\c1cccc(COC(=O)N2CC[C@@H](O)C2)c1)[C@H]1OC(=O)C[C@H](O)CC[C@H](C)[C@@H](OC(=O)N2CCN(C)CC2)/C=C/[C@@H]1C [Compound 254, [(2S,3S,4E,6R,7S,10R)-10-hydroxy-2-[(E)-1-[3-[[(3R)-3-hydroxypyrrolidine-1-carbonyl]oxymethyl]phenyl]prop-1-en-2-yl]-3,7-dimethyl-12-oxo-1-oxacyclododec-4-en-6-yl] 4-methylpiperazine-1-carboxylate] | 22000 nM | 52.2 nM |  |  |  |  | 5.12 nM | 422.058 | −77.065% | 29 nM | −41.424% | 23.7 nM |  |  |  | 
6 | C/C(=C\c1cc(F)cc(N2CCN(CC(F)(F)F)CC2)c1)[C@H]1OC(=O)C[C@H](O)CC[C@H](C)[C@@H](OC(=O)N2CCN(C)CC2)/C=C/[C@@H]1C [Compound 107] | 190 nM | 25.4 nM | −83.679% | 8.46 nM | 7.27 nM | −87.564% | 8.76 nM |  |  |  |  |  |  |  |  | 
7 | C/C(=C\c1cc(N2CCOCC2)ccc1F)[C@H]1OC(=O)C[C@H](O)CC[C@H](C)[C@@H](OC(=O)N2CCN(C)CC2)/C=C/[C@@H]1C [Compound 7] | 1250 nM | 25.1 nM | −89.436% | 8.96 nM | 15.1 nM | −56.359% | 2.88 nM |  |  |  |  |  |  |  |  | 
8 | C/C(=C\c1cc(F)cc(N2CCN(C(=O)c3cnco3)CC2)c1)[C@H]1OC(=O)C[C@H](O)CC[C@H](C)[C@@H](OC(=O)N2CCN(C)CC2)/C=C/[C@@H]1C [Compound 123] | 16.5 nM | 13.1 nM | −71.328% | 2.75 nM | 2.26 nM | −86.056% | 1.7 nM |  |  |  |  |  |  |  |  | 
9 | C/C(=C\c1cc(F)cc(N2CCS(=O)(=O)CC2)c1)[C@H]1OC(=O)C[C@H](O)CC[C@H](C)[C@@H](OC(=O)N(C)C)/C=C/[C@@H]1C [Compound 51] | > 25000 nM | 88.1 nM | −78.388% | 80.9 nM | 112 nM | −31.962% | 19.7 nM |  |  |  |  |  |  |  |  | 
10 | C/C(=C\c1ccc2c(F)nn(CC3CC3)c2c1)[C@H]1OC(=O)C[C@H](O)CC[C@H](C)[C@@H](OC(=O)N2CCN(C)CC2)/C=C/[C@@H]1C [Compound 133] | 1670 nM | 92.5 nM | −94.957% | 25.6 nM | 17.7 nM | −69.167% | 6.99 nM |  |  |  |  |  |  |  |  | 
11 | C/C(=C\c1cc(F)cc(N2CCOCC2)c1)[C@H]1OC(=O)C[C@H](O)CC[C@@](C)(O)[C@@H](OC(=O)N2CCC(N3CCCCC3)CC2)/C=C/[C@@H]1C [Compound 62] | 587 nM | 52.9 nM | −94.536% | 40.5 nM | 54.9 nM | −57.446% | 7.86 nM |  |  |  |  |  |  |  |  | 
12 | C/C(=C\c1cccc(S(=O)(=O)N2CCC(F)(F)C2)c1)[C@H]1OC(=O)C[C@H](O)CC[C@H](C)[C@@H](OC(=O)N2CCN(C)CC2)/C=C/[C@@H]1C [Compound 204, [(2S,3S,4E,6R,7S,10R)-2-[(E)-1-[3-(3,3-difluoropyrrolidin-1-yl)sulfonylphenyl]prop-1-en-2-yl]-10-hydroxy-3,7-dimethyl-12-oxo-1-oxacyclododec-4-en-6-yl] 4-methylpiperazine-1-carboxylate] |  |  |  |  |  |  | 23.5 nM |  | −94.081% |  | −24.924% |  | 82 nM | 81.9 nM |  | 
13 | C/C(=C\c1cc(F)cc(N2CCN(S(=O)(=O)c3cccnc3)CC2)c1)[C@H]1OC(=O)C[C@H](O)CC[C@H](C)[C@@H](OC(=O)N2CCN(C)CC2)/C=C/[C@@H]1C [Compound 112] |  |  | −80.066% | 8.29 nM | 6.23 nM | −86.973% | 12.8 nM |  |  |  |  |  |  |  |  | 
14 | COCCN1CCN(c2cc(F)cc(/C=C(\C)[C@H]3OC(=O)C[C@H](O)CC[C@H](C)[C@@H](OC(=O)N4CCN(C)CC4)/C=C/[C@@H]3C)c2)CC1=O [Compound 105] |  |  | −90.949% |  |  | −68.464% | 2.87 nM |  |  |  |  |  |  |  | 5.85 nM | 6.95 nM
15 | C/C(=C\c1cccc(COC(=O)N2CCC3(COC3)C2)c1)[C@H]1OC(=O)C[C@H](O)CC[C@H](C)[C@@H](OC(=O)N2CCN(C)CC2)/C=C/[C@@H]1C [Compound 255, [3-[(E)-2-[(2S,3S,4E,6R,7S,10R)-10-hydroxy-3,7-dimethyl-6-(4-methylpiperazine-1-carbonyl)oxy-12-oxo-1-oxacyclododec-4-en-2-yl]prop-1-enyl]phenyl]methyl 2-oxa-7-azaspiro[3.4]octane-7-carboxylate] |  |  |  |  |  |  | 7.32 nM |  | −61.401% |  | −24.942% |  | 65.8 nM | 67.6 nM |  | 
16 | C/C(=C\c1cc(F)cc(N2CCN(S(=O)(=O)c3cn(C)cn3)CC2)c1)[C@H]1OC(=O)C[C@H](O)CC[C@H](C)[C@@H](OC(=O)N2CCN(C)CC2)/C=C/[C@@H]1C [Compound 113] |  |  | −80.966% | 49 nM | 41.8 nM | −73.107% | 8.2 nM |  |  |  |  |  |  |  |  | 
